Experimental findings from patent US20030216427A1, “Amine derivatives for the treatment of apoptosis” (priority 2000, published 2003) are described below.

One test deals with gerbils. Kind of test: Global ischemia in gerbils (in vivo). More on the design: species or system gerbil. Particulars: 30 mg/kg, 5 min carotid occlusion. On the procedure: The ability of the amine compounds of formula I to protect cell death during a stroke event may be assessed using the following protocol:
Anesthesia: halothane or isoflurane (0.5-4%).
Sheaving of the gorge and incision of the skin.
The common carotid arteries (left and right) are freed from tissue.
Occlusion of the arteries using Bulldog microclamps during 5 min.
Disinfection of the surgery plan (Betadine®) and suture of the skin (Autoclip® or Michel's hooks).
Stabulation of the animals under heating lamp until awake.
Stabulation of the animals in the animalry in individual cages.
7 days after ischemia (Decapitation or overdose of pentobarbital).
Freezing of the brain in isopentane (−20° C.)
Slicing of the hippocampus using a cryo-microtome (20 μm).
Staining with cresyl violet and/or TUNEL method
Evaluation of the lesions (in CA1/CA2 subfields of the hippocampus)
Gerhard & Boast score modified or
Cell counting in the CA1/CA2
Microdissection of the cerebral structures
Parameters determined: DNA fragmentation, lactate, calcium penetration.
Analytical methods: ELISA, colorimetry, enzymology, radiometry.
Administration of the test article or the vehicle: 15 min after reperfusion (5-10 min after the recovery of the anesthesia).
50 animals : 5 groups of 10 (group A: control, groups B-D : test article at 3 doses and group E : reference compound (ketamine 3×120 mg/kg, ip or Orotic acid 3×300 mg/kg, ip).

Test [1] deals with male Wistar rats. Kind of test: Transient model of focal cerebral ischemia (transient middle cerebral artery occlusion). It counts as in vivo, rat. The conditions noted are these: dose of 1 mg/kg (i.v.). The source says: The compounds of the present invention were also subjected to the transient model of focal cerebral ischemia. The method used was adapted from Nagasawa and Kogure, Stroke, 20, 1037, 1989 as well as Zea Longa, Weinstein, Carlon and Cummins, Stroke, 20, 84, 1989.

For test [2], the system named is male Wistar rats. As to the kind of experiment: Kainate-induced neuronal cell death in the rat hippocampus. It counts as in vivo. The conditions noted are these: dose of 30 mg/kg (i.v.). The method, then:
The compounds of the present invention were also subjected to the model of kainate-induced neuronal cell death in the rat hippocampus. The method used was adapted from Gelowitz, Paterson, Pharmacol.Biochem.Behav., 62: 255-62 (1999), Magyar et al. Transm.Suppl., 52: 109-23 (1998) as well as Sperk et al, Brain Re., 338: 289-95 (1985). […] According to a preferred embodiment, the tested compounds display a protection rate of at least 25%, preferably of at least 40% at a dose of 30 mg/kg (i.v.)

The subject of test [3] is Sympathetic neurons from superior cervical ganglia (SCG) of newborn rats. As to the kind of experiment: Sympathetic neuron culture and survival assay. It counts as cell-based, rat. The conditions noted are these: compound at 10 μM; 24 hours after cell death induction by anti NGF antibody, MTT. The method, then: Cell death is induced at day 4 after plating by exposing the culture to medium containing 10 µg/ml of anti NGF antibody (Boehringer Mannheim Corp., Indianapolis, Ind.) and no NGF or arabinosine, in the presence or absence of amino derivatives according to formula I. 24 hours after cell death induction, determination of cell viability is performed by incubation of the culture for 1 hour, at 37° C. in 0.5 mg/ml of 3-(4,5-dimethyl-thiazol-2-yl)2,5 diphenyl tetrazolium bromide (MTT). After incubation in MTT cells are re-suspended in DMSO, transferred to a 96 MTT plate and cell viability is evaluated by measuring optical density at 590nm.

The target in the next test is T1, recombinant Bax (Homo sapiens, UniProt Q07812).
T1 construct: Bax-α lacking 20 amino acids at the COOH-terminus; GST (cleaved yes); His; made in house; host or cells: Escherichia coli
T1 sequence (Q07812 1-172 limits assumed): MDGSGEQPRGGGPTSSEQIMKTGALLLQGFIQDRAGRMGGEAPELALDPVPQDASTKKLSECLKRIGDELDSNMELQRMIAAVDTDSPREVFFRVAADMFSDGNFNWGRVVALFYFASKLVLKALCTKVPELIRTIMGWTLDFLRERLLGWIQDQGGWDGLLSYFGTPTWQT
As to the kind of experiment: In vitro assay for cytochrome c release (mouse liver mitochondria incubated with recombinant Bax). It counts as biochemical. The conditions noted are these: compound at a concentration of 10 μM, 200 nM recombinant Bax. The source says: Hunan Bax-α lacking 20 amino acids at the COOH-terminus is expressed as a GST fusion protein or a His-tagged protein in Escherichia coli, and the protein is purified from the soluble cell fraction. In brief, the GST-Bax fusion protein is applied to a glutathione-Sepha-rose column, and Bax was released by cleavage with thrombin (0.6U/mL). Bax is subsequently purified on heparin-Sepharose, followed by fast protein liquid chromatography (FPLC) Mono Q. His-tagged Bax is purified on a Ni-nitriloacetic acid-agarose column followed by FPLC MonoQ:
Mitochondria are isolated from mouse liver cells by differential centrifugation Cells are broken with a dounce homogenizer and the suspension is centrifuged at 2,000 g in an Eppendorf centrifuge at 4° C. This procedure is repeated until almost all the cells are broken. Supernatants from each step are pooled before centrifugation at 13,000 g at 4° C. for 10 min. […]
Mitochondria (30 μg) from mouse liver are incubated with 200 nM recombinant Bax in the presence of various compounds (5 μM) in 200 μL of KCl buffer for 20 min at 30° C. and are then centrifuged for 4 min at 13,000 g at 4° C. […] Antigen-antibody complexes are detected using horseradish peroxidase-conjugated goat anti-rabbit IgG and enhance chemi-luminescence detection reagents. The cytochrome c bands are scanned and quantified using a Bio-Rad (GS-700 Imaging Densitometer).

In test [4] the test system is Bid-induced Bax activation. As to the kind of experiment: Release of cytochrome c triggered by Bid-induced Bax activation (mitochondria isolated from HeLa cells). It counts as biochemical. The conditions noted are these: compound at a concentration of 5 μM, 10 nM recombinant Bid. On the procedure:
Concerning the Bid-induced activation of Bax leading to mitochondrial Cytochrome C release, it is referred to the description of Martinou et al. in The Journal of Cell Biology, Vol. 144, No. 5, Mar. 8, 1999, pages 891-901 as well as Eskes, Desagher, Antonsson and Martinou in Molecular and Cellular Biology, February 2000, p. 929-935, Vol. 20, No. 3. Mitochondria isolated from HeLa cells are incubated for 15 min at 30° C. in 100 μl of KCl buffer in the presence or absence of 10 nM recombinant Bid. […] Following incubation, mitochondria were centrifuged for 5 min at 13000 g at 4° C. and the supernatant is collected for cytochrome c analysis. Cytochrome c is detected by Western blotting. The cytochrome c bands are scanned and quantified using a Bio-Rad (GS-700 Imaging Densitometer).

Regarding `CCCCCCCCCCCCC(=O)N1CCCC[C@H]1C(=O)NCCCCCCN` [Example 1, (S)-1-Tridecanoyl-piperidine-2-carboxylic acid (6-amino-hexyl)-amide], the “protection rate of cell survival” value in the test on gerbils is given as “about 45%”. Besides, in the test on male Wistar rats [1], the “decrease in the cortex infarct volume” value is reported as “about 56%”. Further, in the test on male Wistar rats [2], the protection rate result is reported as “about 50%”. `CCCCCCCCCCCCC(=O)N1CCCC[C@@H]1C(=O)NCCCCCCN` [Example 2, (R)-N-(6-aminohexyl)-1-tridecanoylpiperidine-2-carboxamide]: the neuronal survival rate result in test [3] was “about 41%”.

With `CCCCCCCCCCCCC(=O)N1CCC[C@H]1C(=O)NCCCCCCN` [Example 7, (S)-N-(6-aminohexyl)-1-tridecanoylpyrrolidine-2-carboxamide], at recombinant Bax, the inhibition (as a rule, the percentage by which the read-out fell short of the control) at 10 µM was roughly 88%.

Consider `CCCCCCCCCCCCC(=O)N(C)[C@H](C(=O)NCCCCCCN)C(C)C` [Example 22, (S)-N-(1-{[(6-aminohexyl)amino]carbonyl)-2-methylpropyl)-N-methyltridecanamide], for which, in test [4], the “inhibition of the cytochrome c release” value is “about 95%”. As to `CCCCCCCCCCCCC(=O)N1CCC[C@@H]1C(=O)NCCCCCN` [Example 139, (R)-N-(5-aminopentyl)-1-tridecanoylpyrrolidine-2-carboxamide], the “protection rate of cell survival” value in the test on gerbils is roughly 55%.
